Assay results as given in publication PMC6715247 (PLoS Neglected Tropical Diseases, 2019).
Entries after “also recorded” stand apart in the source; their conditions may differ. Read-outs that look alike come from different tables or passages of the source.

How the values were obtained:
[1] = biological target: rEhAPSK (Entamoeba histolytica, UniProt C4LUW9); test: 96-well plate-based in vitro APSK activity assay (coupling assay, NADH decrease); type: biochemical; conditions: for Inhibition of rEhAPSK activity: 10 μM compound, 1% DMSO
Sequence of rEhAPSK (C4LUW9 entry or part of it): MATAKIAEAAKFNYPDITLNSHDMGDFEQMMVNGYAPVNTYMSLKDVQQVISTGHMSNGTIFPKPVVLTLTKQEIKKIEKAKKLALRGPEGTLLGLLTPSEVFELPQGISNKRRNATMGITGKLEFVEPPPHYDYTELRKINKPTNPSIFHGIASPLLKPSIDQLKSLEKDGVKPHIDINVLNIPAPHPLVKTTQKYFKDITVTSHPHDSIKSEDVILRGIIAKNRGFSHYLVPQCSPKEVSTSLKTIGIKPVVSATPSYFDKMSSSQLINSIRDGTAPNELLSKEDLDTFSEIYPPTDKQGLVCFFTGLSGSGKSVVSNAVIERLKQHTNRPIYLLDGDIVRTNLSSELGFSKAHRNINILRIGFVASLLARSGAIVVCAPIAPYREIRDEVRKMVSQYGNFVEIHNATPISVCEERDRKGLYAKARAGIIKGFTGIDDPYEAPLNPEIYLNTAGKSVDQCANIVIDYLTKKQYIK
Experimental: (§1) A coupling assay to measure APSK activity was performed as described except a 96-well plate was used. Briefly, each well contained 100 μL reaction mixture, which consisted of 90 μL coupling solution and 10 μL of either compound solution (see below) or 10% DMSO. […] The coupling solution was 100 mM Tris/HCl (pH 8.0), 1 mM MgCl2, 1 mM KCl, 5 mM Mg2ATP, 1 mM NADH, 1 mM PEP, 1 U NP1, 3.5 U PK, 5.0 U LDH, and APSK (≤3 μL). […] As controls, in place of purified APSK solution (rEhAPSK or rHsAPSK), 3 μL of a blank [50 mM Tris/HCl buffer (pH 8.0)], a solvent (elution buffer), a mock (rEhSF2), or denatured APSK suspensions obtained by heat-treatment, were added to the coupling solution. The activity of each sample was calculated after removing the baseline value of the blank control.
(§2) For the inhibition assay, 2 μL of each stock solution, which were distributed in a 96-well plate, were transferred to a new plate to make a replicate. After adding 18 μL deionized water to each well and mixing, 10 μL of each diluted solution (100 μM compound solution) was again transferred into a new 96-well plate to make a replicate. Then 90 μL of the coupling solution prepared above was dispensed into each well containing the previously added 10 μL of 100 μM compound solution. As a solvent control, 10% DMSO solution (vol/vol-deionized water) was used in place of compound solution. The final concentrations of each compound and DMSO in a well were 10 μM and 1% (vol/vol), respectively. The assays were performed independently three times, and data are shown as the mean with SD.
One millimolar stock solutions used were either thawed in a replicate (96-well plate) prepared in [18] […] Subsequently, 3.4 μL of the 1 mM and each diluted stock solution were dispensed into wells of a 96-well culture plate, containing 30.6 μL deionized water and mixed well by pipetting. Ten microliters of all resulting solutions were then dispensed into wells of a 96-well plate to make triplicates and then used as described for the above inhibition assay. 10% DMSO solution was used as an inhibitor-free control. Note that the final DMSO concentration in any well was 1% (vol/vol).
(§3) In all assays, prepared mixtures in a plate were mixed on a vibrating table equipped with either an EnVision or ARVO plate reader (PerkinElmer) before starting the reaction.

[2] = tested on: sulfolipids synthesized in E. histolytica trophozoites; test: Metabolic labeling by [35S]-labeled sulfate, sulfolipid synthesis; type: cell-based, Entamoeba histolytica; conditions: 6 h treatment; A-D-11, A-H-11 6.25-100 μM, E-H-05 0.5-8 μM
Experimental: Metabolic labeling of E. histolytica trophozoites by [^35S]-labeled sulfate was performed essentially as described previously with slight modification. […] Each 10 mM stock solution (in DMSO) of the three commercially sourced compounds was serially diluted by 2-fold decrements with DMSO. The resulting diluted solutions were then added to 0.75 ml cell suspension in BI-S-33 medium at 1/100 (vol/vol). […] Note that DMSO was used as a solvent control at 1%, which was the DMSO concentration in all samples analyzed. [^35S]-labeled sulfate (45 μCi) was added 4 h after the start of treatments and labeled cells were harvested at 6 h. […] Each spot on the TLC plates was quantified using a Fuji imaging analyzer and Multi Gauge 2.2 software (FLA-7000; Fujifilm, Japan). The total cell protein was estimated using a Pierce BCA protein assay kit (Thermo Scientific, Rockford, IL, USA).

[3] = tested on: E. invadens cyst formation; design: method as in PMID 30087858; conditions: 10 μM; ref [18]; cited from earlier work
[4] = biological target: T1, rHsAPSK (recombinant APSK domain of HsPAPSS1) (Homo sapiens, UniProt O43252); test: 96-well plate-based in vitro APSK activity assay (coupling assay, NADH decrease); type: biochemical; conditions: 10 μM compound, 1% DMSO
T1 construct: APSK domains of HsPAPSS1 (Ala^25—Pro^227) and -2 (Ser^15—Pro^217); His tag (pCold-I vector); made in house; host or cells: E. coli BL21(DE3)
T1 sequence (O43252 25-227): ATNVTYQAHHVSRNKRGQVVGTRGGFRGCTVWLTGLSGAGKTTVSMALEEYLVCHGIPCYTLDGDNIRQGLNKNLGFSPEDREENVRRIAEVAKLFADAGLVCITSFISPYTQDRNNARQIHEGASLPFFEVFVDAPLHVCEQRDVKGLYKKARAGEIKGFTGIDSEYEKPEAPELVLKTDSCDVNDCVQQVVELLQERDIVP
Experimental: as §1, §2, §3

[5] = tested on: E. histolytica trophozoites; test: Morphological analysis by phase contrast microscopy; type: cell-based, Entamoeba histolytica; conditions: 6 h treatment
From the text: Cell morphology was then observed by phase contrast microscopy using a Primovert microscope (Carl Zeiss, Germany) with a COMS camera (E3CMOS12000KPA, ToupTek, China). […] Cell images were captured using ToupView software (ToupTek).

[6] = tested on: E. histolytica trophozoite; test: E. histolytica trophozoite proliferation assay (flow cytometry); type: cell-based; conditions: Entamoeba histolytica, read-out: Trophozoite proliferation IC50
Experimental: (§4) E. histolytica trophozoite proliferation and E. invadens cyst formation assays were performed essentially as described in [18] except that in addition to 0–72 and 48–72 h cyst formation assays, 0–96 and 0–120 h, and 48–96 and 48–120 h assays were also performed.

[7] = tested on: E. invadens cyst formation; test: E. invadens cyst formation (encystation) assay (flow cytometry); type: cell-based, Entamoeba invadens; conditions: for IC50: Entamoeba invadens, read-out: Cyst formation IC50; for Number of cysts formed at 72 h: compound added at 48 h post-induction (48–72 h)
Experimental: as §4

[8] = WST-1-based cytotoxicity assay; conditions: human
Experimental: (§5) Human foreskin fibroblast (HFF) cells (purchased from ATCC) were routinely maintained in DMEM supplemented with 10% fetal bovine serum, 100 units/ml penicillin, […] and 1% GlutaMAX™-I (Thermo Fisher Scientific, Waltham, MA). A WST-1-based cytotoxicity assay was performed as previously described. In detail, HFF cells were plated at 1.0×10^4 cells/100 μL medium in each well of a 96-well culture plate, and incubated overnight at 37°C in a 5% CO2 atmosphere to allow cells to adhere to the wells. […] Numbers of viable cells were then assessed using the Premix WST-1 Cell Proliferation Assay System (Takara). […] DMSO was added at 1% as a negative control whereas ionomycin was added at 30 μM as a positive control. As a blank, the above culture medium was used in place of the solutions added.

[9] = tested on: Human foreskin fibroblast (HFF) cells; test: WST-1-based cytotoxicity assay
Experimental: as §5

[10] = tested on: E. histolytica trophozoite; design: method as in PMID 30087858; conditions: 10 μM; ref [18]; cited from earlier work
[11] = read-out: APSK activity IC50, rEhAPSK, average ± SD, more than three independent experiments
[12] = rEhAPSK, average ± SD, more than three independent experiments, read-out: APSK activity IC50

Compound | Inhibition of rEhAPSK activity [1] | IC50 [1, 12] | Number of viable HFF cells relative to 1% DMSO control (set as 100%) ([9]; 10 μM, 48 h) | further results
COc1ccc(C2=NN(C3CCCCCC3)C(=O)C2(C)C)cc1OCCCCOc1ccc(-c2nnn[nH]2)cc1 [A-C-05] | reproducibly inhibited rEhAPSK activity |  |  | IC50 [1]: 4.73 ± 1.16 µM; IC50 [1, 11]: < 10 µM
O=C(COc1cccc(F)c1)Nc1nc(-c2ccccn2)cs1 [A-D-11, 2-(3-fluorophenoxy)-N-[4-(2-pyridyl)thiazol-2-yl]-acetamide] | reproducibly inhibited rEhAPSK activity |  |  | Amount of sulfolipids synthesized [2]: dose-dependently reduced the amount of sulfolipids synthesized; Effect on cyst formation [3]: negative effects; Inhibition of rHsAPSK activity [4]: none showed any inhibitory activity against HsAPSK; Concentration range that produced trophozoite morphology similar to DMSO control [5]: 6.25–100 μM; IC50 [6]: 7.5 ± 2.29 µM; IC50 [7]: 2270 ± 252 nM; Number of cysts formed at 72 h [7]: neither A-D-11 nor A-H-11 affected the number of cysts formed at 72 h; IC50 [1]: 6.3 ± 1.53 µM; IC50 [1, 11]: < 10 µM; IC50 at 48 h [8]: > 100 µM
COc1cccc(-n2nnnc2S(=O)(=O)Cc2ccccc2)c1 [A-F-04] | reproducibly inhibited rEhAPSK activity | > 10 µM |  | 
Cc1cc(C)cc(COc2ccc3c(C)c(CCC(=O)O)c(=O)oc3c2C)c1 [A-F-07] | reproducibly inhibited rEhAPSK activity | 7.67 ± 1.25 µM | did not affect numbers of viable cells | 
O=C(Nc1nc(-c2ccccn2)cs1)c1cncn1-c1ccccc1 [A-H-11, 3-phenyl-N-[4-(2-pyridyl)thiazol-2-yl]-imidazole-4-carboxamide] | reproducibly inhibited rEhAPSK activity | 6.75 ± 1.35 µM | did not affect numbers of viable cells; also recorded: did not influence numbers of viable HFF cells | Amount of sulfolipids synthesized [2]: dose-dependently reduced the amount of sulfolipids synthesized; Effect on cyst formation [3]: negative effects; Inhibition of rHsAPSK activity [4]: none showed any inhibitory activity against HsAPSK; Effect on trophozoite proliferation [10]: negative effects; Concentration range that produced trophozoite morphology similar to DMSO control [5]: 6.25–100 μM; IC50 ([6]; average ± SD, three independent experiments): 4 ± 1.05 µM; IC50 ([7]; 0–72 h, average ± SD, three independent experiments): 2350 ± 132 nM; Number of cysts formed at 72 h [7]: neither A-D-11 nor A-H-11 affected the number of cysts formed at 72 h; Number of viable HFF cells relative to DMSO control ([9]; 100 μM, 48 h): did not influence numbers of viable HFF cells; IC50 at 48 h ([8]; human foreskin fibroblast (HFF) cells): > 100 µM
Cc1cc(C2=NOC(c3cc(Cl)c(F)c(Cl)c3)(C(F)(F)F)C2)ccc1C(=O)NCc1ccc2c(c1)C(C)(C)OB2O (centres unmarked) [B-B-05] | reproducibly inhibited rEhAPSK activity |  |  | IC50 [1]: 5.73 ± 1.36 µM; IC50 [1, 11]: < 10 µM; Number of viable HFF cells relative to 1% DMSO control (set as 100%) ([9]; 10 µM): did not affect numbers of viable cells
COc1ccc(C2=NN(C3CCCCCC3)C(=O)C3CC=CCC23)cc1OCCCCOc1ccc(-c2nnn[nH]2)cc1 (centres unmarked) [B-C-02] | reproducibly inhibited rEhAPSK activity |  |  | Number of viable HFF cells relative to 1% DMSO control (set as 100%) ([9]; 10 µM): ~20 − ~60
COc1ccc(Cl)cc1NC(=O)CN(C)C(=O)c1cnn(-c2ccccc2)n1 [B-C-08] | reproducibly inhibited rEhAPSK activity | 6.57 ± 1.25 µM | did not affect numbers of viable cells | 
Cc1ccc(C(=O)Nc2ccc(S(=O)(=O)O)c3cc(S(=O)(=O)O)cc(S(=O)(=O)O)c23)cc1NC(=O)c1cccc(NC(=O)Nc2cccc(C(=O)Nc3cc(C(=O)Nc4ccc(S(=O)(=O)O)c5cc(S(=O)(=O)O)cc(S(=O)(=O)O)c45)ccc3C)c2)c1 [B-D-03, suramin, reference compound] | reproducibly inhibited rEhAPSK activity | 0.52 ± 0.102 µM |  | Number of viable HFF cells relative to 1% DMSO control (set as 100%) ([9]; 10 µM): did not affect numbers of viable cells
Cn1c(=O)c2c(S(C)(=O)=O)snc2n(C)c1=O [C-C-06] | reproducibly inhibited rEhAPSK activity | 8.67 ± 2.62 µM |  | 
N=C(N)Nc1ccc(-c2ccc(-c3ccc(NC(=N)N)cc3Cl)o2)c(Cl)c1 [C-F-03] | reproducibly inhibited rEhAPSK activity | 2.03 ± 0.205 µM | did not affect numbers of viable cells | 
C[C@]1(COc2ccc(N3CCC(Oc4ccc(OC(F)(F)F)cc4)CC3)cc2)Cn2cc([N+](=O)[O-])nc2O1 [C-F-06, delamanid, reference compound] | reproducibly inhibited rEhAPSK activity | > 10 µM | did not affect numbers of viable cells | 
N=C(N)Nc1ccc(-c2ccc(-c3ccc(NC(=N)N)c(Cl)c3)o2)cc1Cl [D-E-10] | reproducibly inhibited rEhAPSK activity | 0.47 ± 0.0499 µM | did not affect numbers of viable cells | 
O=C(Nc1nnc(S)s1)c1cc(Br)ccc1Cl [E-G-10] | reproducibly inhibited rEhAPSK activity | > 10 µM | did not affect numbers of viable cells | 
C[C@H](CCC(=O)O)C[C@H](C)C[C@H](C)C(=O)/C=C(\O)[C@H](C)C[C@H](C)C/C=C/[C@@H](C)[C@@H](O)[C@@H](C)[C@@H](O)C[C@@H]1CC[C@@](C)([C@H]2CC[C@@](C)([C@@H](C)O)O2)O1 [ionomycin, reference compound] |  |  |  | HFF cell viability ([9]; 30 μM, positive control): almost completely abolished cell viability
